In patent publication US4191698A, “Tricyclopentyltin fluoride” (priority 1977, dated 1980):

Legend:
Format in all cases: in vivo
[1] = test system: wheat; assay: Phytotoxicity to host plant in wheat leaf rust test (rating 0-2); design: key: 0: indicates no phytotoxicity; 1: indicates that the degree of phytotoxicity was sufficient to make the plant commercially worthless; 2: indicates that the plant was killed; details: 300 ppm
Procedure: (§1) The efficacy of tricyclopentyltin fluoride as a control agent for three different plant fungi (grape downy mildew, apple powdery mildew and wheat leaf rust) was evaluated and compared with the performance of several other tricyclopentyltin compounds. The results of this evaluation are disclosed in the following tables 2, 3 and 4. The phytotoxicity of the various compounds tested was also evaluated at various concentration levels. […] Quantitative ratings for phytotoxicity are given in each of the first three tables. A rating of 0 indicates no phytotoxicity.
(§2) Host plants, (grape, wheat or apple, depending upon the fungus) are sprayed with a water suspension of the test compound and then inoculated with the pathogen. A number of control plants that have not been sprayed are also inoculated. After disease symptoms are well developed on the untreated control plants the test plants are graded for disease control.

[2] = test system: wheat; assay: Phytotoxicity applied to wheat (scale 0-5); design: key: 0: no phytotoxicity; 1: very slight injury, the minimum that could be observed; 2: less than 10% of leaf surface injured; 3: 10-50% of leaf surface injured; 4: 50-90% of leaf surface injured; 5: plant killed
Procedure: (§3) The phytotoxicity of a number of tricyclopentyltin compounds and triphenyltin hydroxide on grape vines, wheat and barley was evaluated quantitatively using the following scale:
(§4) If the rating was considered to be somewhere between two integers based on observations of other plants, the lower integer followed by "0.5" was employed as the rating.

[3] = test system: Grape Downy Mildew (Plasmopara viticola); assay: Grape downy mildew control (Procedure 3)
Text: (§5) PROCEDURE 3--Employed Using Grape Downy Mildew (Plasmopara viticola), Wheat Leaf Rust (Puccinia recondita) and Apple Powdery Mildew (Podosphaera leucotricha)
as §2

[4] = test system: Wheat Leaf Rust (Puccinia recondita); assay: Wheat leaf rust control (Procedure 3); details: 300 ppm
Text: as §5, §2

[5] = test system: Grape Vines; assay: Phytotoxicity applied to grape vines (scale 0-5); design: key to Phytotoxicity: 0: no phytotoxicity; 1: very slight injury, the minimum that could be observed; 2: less than 10% of leaf surface injured; 3: 10-50% of leaf surface injured; 4: 50-90% of leaf surface injured; 5: plant killed; details: for Phytotoxicity: scale 0-5
Procedure: as §3, §4

[6] = test system: Barley; assay: Phytotoxicity applied to barley (scale 0-5); design: key: 0: no phytotoxicity; 1: very slight injury, the minimum that could be observed; 2: less than 10% of leaf surface injured; 3: 10-50% of leaf surface injured; 4: 50-90% of leaf surface injured; 5: plant killed
Procedure: as §3, §4

[7] = test system: grape; assay: Phytotoxicity to host plant in grape downy mildew test (rating 0-2); design: key to Phytotoxicity: 0: indicates no phytotoxicity; 1: indicates that the degree of phytotoxicity was sufficient to make the plant commercially worthless; 2: indicates that the plant was killed; details: for Phytotoxicity: rating 0-2
Procedure: as §1, §2

[8] = test system: Apple Powdery Mildew (Podosphaera leucotricha); assay: Apple powdery mildew control (Procedure 3)
Text: as §5, §2

Row | Molecule | Phytotoxicity [1] | Phytotoxicity ([2]; 75 ppm) | Phytotoxicity ([2]; 300 ppm) | Phytotoxicity ([2]; 1200 ppm) | Phytotoxicity ([5]; 75 ppm) | Phytotoxicity ([5]; 300 ppm) | Phytotoxicity ([5]; 1200 ppm) | Phytotoxicity ([6]; 38 ppm) | Phytotoxicity ([6]; 150 ppm) | Phytotoxicity ([6]; 600 ppm) | Phytotoxicity ([7]; 75 ppm) | Phytotoxicity ([7]; 300 ppm) | % Control ([8]; 75 ppm) | other results
1 | [Cl][Sn]([CH]1CCCC1)([CH]1CCCC1)[CH]1CCCC1 [Tricyclopentyltin chloride] | 2 | 1 | 3 (10-50% of leaf surface injured) | 5 | – | – | – | – | – | – | – | – | – | –
2 | [F][Sn]([CH]1CCCC1)([CH]1CCCC1)[CH]1CCCC1 [Tricyclopentyltin fluoride] | 0 | 0 | 0 | 1.5 | 0 | 1.5 | 3.5 | 0 | 1 | 2 (less than 10% of leaf surface injured) | 0 | 0 | – | control rating (comparison in words) ([3]; 75 ppm): higher than the two other tricyclopentyltin compounds; activity against representative plant fungi (comparison in words) ([3]; representative plant fungi of Tables 2-4): highest activity against representative plant fungi of all the compounds tested; control of wheat leaf rust (in words) [4]: effectively controlled wheat leaf rust; damage to plants (comparison in words) ([5]; Tables 5-7: grape vines, wheat and barley): least damaging to the plants; phytotoxic effects (in words) ([7]; 300 ppm): did not produce any phytotoxic effects; efficacy (comparison in words) ([8]; 75 ppm): considerably higher than the other compounds tested
3 | [OH][Sn]([CH]1CCCC1)([CH]1CCCC1)[CH]1CCCC1 [Tricyclopentyltin hydroxide] | 0 | 0 | 1 | 2.5 | 1 | 2.5 | 4.5 | 1 | 2 (less than 10% of leaf surface injured) | 3.5 | 0 | 1 | – | –
4 | [OH][Sn]([c]1ccccc1)([c]1ccccc1)[c]1ccccc1 [Triphenyltin hydroxide] | 0 | – | – | – | 2.5 | 3.5 | 5 | 1 | 3 (10-50% of leaf surface injured) | 4 (50-90% of leaf surface injured) | 1 | 1 | 25% | % Control ([3]; 75 ppm): 95%; control rating (comparison in words) ([3]; 75 ppm): higher control rating at this level; % Control ([3]; 300 ppm): 100%; % Control [4]: 25%; phytotoxicity (in words) ([7]; 75 ppm): too phytotoxic to be commercially useful
5 | Tricyclopentyltin acetate | – | – | – | – | 2 (less than 10% of leaf surface injured) | 4 (50-90% of leaf surface injured) | 5 | 1 | 2 (less than 10% of leaf surface injured) | 3.5 | – | – | 25% | –
6 | Tricyclopentyltin benzoate | – | – | – | – | – | – | – | – | – | – | 0 | 1 | – | % Control ([3]; 75 ppm): 50%; % Control ([3]; 300 ppm): 75%
7 | Tricyclopentyltin phenoxide | – | – | – | – | – | – | – | – | – | – | – | – | 50% | % Control ([8]; 300 ppm): 83%
